The text below walks through data of patent US20250367163A1, “PHARMACEUTICAL COMPOSITION FOR PREVENTING OR TREATING DEGENERATIVE EYE DISEASES” (GLACEUM, INC., priority 2021, published 2025).

Assay [1] concerns inflammation-related mRNA in RPE cells. Description: Inflammatory factor mRNA (real-time PCR) in RPE cells from Alu-RNA animal model (dry-AMD). It counts as in vivo, mouse. Particulars: oral, from 6 days before and for 7 days after induction of dry-AMD. How it is done: (§1) Male C57BL/6 mice were anesthetized, and a lesion was induced by making a hole in the corneal limbus of the mouse eye and injecting 1.2 μg of Alu-RNA into the subretinal space by a Hamilton syringe. Each of Compound 1-2 and Compound 1-18 was administered orally starting from 6 days before induction of the dry-AMD model, and was administered orally for 7 days after induction of the disease. To evaluate the dry-AMD preventive and therapeutic effects of each of Compound 1-2 and Compound 1-18, the morphology of the lesion was evaluated by fundus photography using TOPCON #TRC-50DX.
RPE cells were isolated from the same model as in Experimental Example 9, and the relative expression level of inflammation-related mRNA was analyzed using real-time PCR. […] 100 pmol of oligo Dt17 primer was added to 1 μg of total RNA which was then incubated at 74° C. for 10 minutes, and then 30 U of RNAsin (RNase inhibitor), 10 U of AMV-RT (avian myeloblastosis virus-reverse transcriptase), and AMV-RT buffer (Promega, Israel) were added thereto and reacted at 42° C. for 2 hours and at 52° C. for 1 hour, thereby synthesizing cDNA from the RNA extracted from the […]. cDNA was amplified using the SYBR Premix Ex Taq kit (Takara Bio, Inc.) and the StepOnePlus Real-time PCR system (Applied Biosystems), and then mRNA expression was measured.
On the technique in general: Real-time PCR tracks product formation cycle by cycle.

In assay [2] the test system is mitochondrial reactive oxygen species in RPE cells. Description: Mitochondrial reactive oxygen species (MitoSOX) in RPE cells from wet-AMD (CNV) animal model. In kind it is in vivo, mouse. Particulars: for mitochondrial reactive oxygen species in RPE cells (FIG. 2) / efficacy on mitochondrial reactive oxygen species compared with positive control anti-VEGF agent (FIG. 2): oral, from 6 days before and for 7 days after inducing wet-AMD; for efficacy on mitochondrial reactive oxygen species compared with positive control anti-VEGF agent (FIG. 2): Eylea as positive control. An excerpt: (§2) RPE cells were isolated from the same model as in Experimental […] changes in mitochondrial reactive oxygen species in the RPE cells were examined through fluorescence microscopy. Specifically, immediately after enucleation of the mouse eye, mitochondria and nuclei were stained using the MitoSOX™ (Invitrogen, #M36008) kit and imaged with a fluorescence microscope at a fluorescence wavelength of 510/580 nm, and changes in reactive oxygen species in the mitochondria were measured.
RPE cells were isolated from the same model as in Experimental Example 3 and stained with MitoSOX, and changes in mitochondrial reactive oxygen species in the RPE cells were examined through fluorescence microscopy. Measurement was performed in the same manner as in Experimental Example 2.
RPE cells were isolated from the same model as in Experimental Example 5 and stained with MitoSOX, and changes in mitochondrial reactive oxygen species in the RPE cells were examined through fluorescence microscopy. Measurement was performed in the same manner as in Experimental Example 2.
RPE cells were isolated from the same model as in Experimental Example 7 and stained with MitoSOX, and changes in mitochondrial reactive oxygen species in the RPE cells were examined through fluorescence microscopy. Measurement was performed in the same manner as in Experimental Example 2.

The test system is the same in assay [3]. Description: Mitochondrial reactive oxygen species (MitoSOX) in RPE cells from Alu-RNA animal model (dry-AMD). It counts as in vivo, mouse. Particulars: oral, from 6 days before and for 7 days after induction of dry-AMD.
Excerpt: as §2, §1
RPE cells were isolated from the same model as in Experimental Example 9 and stained with MitoSOX, and changes in mitochondrial reactive oxygen species in the RPE cells were examined through fluorescence microscopy. Measurement was performed in the same manner as in Experimental Example 2.

The test system of assay [4] is retinal lesion (wet-AMD) induced by laser photocoagulation. Description: Lesion volume in laser-induced CNV wet-AMD mouse model (FITC-dextran, Z-stack 3D imaging). In kind it is in vivo. Particulars: for efficacy on lesion compared with positive control anti-VEGF agent (FIG. 1) / lesion formation / lesion volume (FIG. 1): oral, from 6 days before and for 7 days after inducing wet-AMD; for efficacy on lesion compared with positive control anti-VEGF agent (FIG. 1): Eylea injected into the eye as positive control; for lesion formation / lesion volume (FIG. 1): male C57BL/6 mice. How it is done:
Male C57BL/6 mice were anesthetized with zoletil and rompun, and a retinal lesion (wet-AMD) was induced by performing three laser photocoagulations at the 2 o'clock, 6 o'clock, and 10 o'clock positions at on the retina of the mouse eye under a slit-lamp microscope. Each of Compound 1-2 and Compound 1-18 was administered orally starting from 6 days before inducing wet-AMD, and was administered orally for 7 days after inducing the disease. Eylea (Bayer, Germany), used as a positive control, was administered by direct injection into the eye immediately after induction of the disease model.
After weighing each mouse, FITC-dextran (SIGMA, #46944) diluted in saline at a concentration of 5 mg/kg was injected into the tail veins of the mice to which each of Compound 1-2 and Compound 1-18 has been administered for 7 days after inducing the wet-AMD model. 3D images of the lesions were obtained using the Z-stack imaging technique, and the volumes of the lesions on the images were quantitatively measured.
Changes after administering Compound 1-2 for 7 days after induction of the disease without administration before induction of the disease to the wet-AMD mouse model induced in the same manner as in Experimental Example 1 were analyzed. In the same manner as Experimental Example 1, the image of the lesion was obtained and the volume of the lesion was quantified.
Changes after co-administering Compound 1-2 and the anti-VEGF agent (Eylea) for 7 days after induction of the disease without administration before induction of the disease to the wet-AMD mouse model induced in the same manner as in Experimental Example 1 were analyzed. In the same manner as Experimental Example 1, the image of the lesion was obtained and the volume of the lesion was quantified.
Changes after administering Compound 1-2 at concentrations of 25, 50 and 100 mg/kg for 7 days after induction of the disease without administration of Compound 1-2 before induction of the disease to the wet-AMD mouse model induced in the same manner as in Experimental Example 1 were analyzed. In the same manner as Experimental Example 1, the image of the lesion was obtained and the volume of the lesion was quantified.

Assay [5] relates to lesion in the eyeball, Alu-RNA dry-AMD model. Description: Fundus photography of eyeball lesion in Alu-RNA animal model (dry-AMD). In kind it is in vivo, mouse. Conditions: oral, from 6 days before and for 7 days after induction of dry-AMD (1.2 μg Alu-RNA subretinal). How it is done:
as §1

Assay [6] relates to RPE cytoskeleton. Description: RPE cell structure (ZO-1 staining) in Alu-RNA animal model (dry-AMD). Particulars: oral, from 6 days before and for 7 days after induction of dry-AMD. In kind it is in vivo, mouse. The method, then: as §1
RPE cells were isolated from the same model as in Experimental Example 9 and stained for ZO-1, and changes in the structure of the RPE cells were examined under a fluorescence microscope (Olympus SZ51, Tokyo, Japan). Specifically, immediately after enucleation of the mouse eye, the RPE cytoskeleton was stained for zonula occludens-1 (ZO-1) and imaged with a fluorescence microscope through the Z-stack imaging technique, and changes in the RPE cytoskeleton were imaged.

The mark [7] stands for this setting: 25, 50 and 100 mg/kg for 7 days after induction of the disease.
The mark [8] stands for this setting: administered for 7 days after induction of the disease, none before induction.

SMILES strings stand for the structures.

For `CCOc1ccc(C2COc3c(ccc4c3CCC(C)(C)O4)C2)c(O)c1` (stereo not shown) [Compound 1-2], the “inflammatory factors in RPE cells, relative mRNA expression (FIG. 12)” value in assay [1] is “effectively reduced”. Besides, in assay [2] (100 mg/kg versus 25 and 50 mg/kg, 7 days after induction of the disease), the “efficacy in reducing mitochondrial reactive oxygen species at 100 mg/kg (FIG. 8)” value is listed as “highest efficacy”. Besides, the “mitochondrial reactive oxygen species in RPE cells depending on concentration (FIG. 8)” value in assay [2] (setting [7]) was “reduced mitochondrial reactive oxygen species in a concentration-dependent manner”. Besides, in assay [2] (setting [8]), the “efficacy on mitochondrial reactive oxygen species compared with positive control anti-VEGF agent (FIG. 4)” value is recorded as “efficacy equivalent to that of the positive control anti-VEGF agent” and the “mitochondrial reactive oxygen species in RPE cells (FIG. 4)” value is on record as “reduced mitochondrial reactive oxygen species”. In assay [2], the “mitochondrial reactive oxygen species in RPE cells (FIG. 2)” value was “reduced mitochondrial reactive oxygen species” and the “efficacy on mitochondrial reactive oxygen species compared with positive control anti-VEGF agent (FIG. 2)” value was “efficacy equivalent to that of the positive control anti-VEGF agent”. Also, the “mitochondrial reactive oxygen species in RPE cells (FIG. 11)” value in assay [3] was “reduced mitochondrial reactive oxygen species”. Moreover, the “lesion volume depending on concentration (FIG. 7)” value in assay [4] (setting [7]) is reported as “reduced in a manner dependent on the concentration”. Besides, in assay [4] (setting [8]), the “efficacy on lesion compared with positive control anti-VEGF agent (FIG. 3)” value was “efficacy equivalent to that of the positive control anti-VEGF agent” and the “lesion formation / lesion volume (FIG. 3)” value was “suppressed formation of the lesion”. In addition, in assay [4], the “efficacy on lesion compared with positive control anti-VEGF agent (FIG. 1)” value was “efficacy equivalent to that of the positive control anti-VEGF agent” and the “lesion formation / lesion volume (FIG. 1)” value is reported as “inhibited lesion formation”. Also, the “lesion in the eyeball by fundus photography (FIG. 9)” value in assay [5] was “reduced the lesion in the eyeball”. In addition, in assay [6], the “RPE cytoskeleton, ZO-1 staining (FIG. 10)” value is “restored the damaged RPE cytoskeleton”.

Turning to `CCCOc1ccc([C@@H]2COc3c(ccc4c3CCC(C)(C)O4)C2)c(O)c1` [Compound 1-18], in assay [2], the “mitochondrial reactive oxygen species in RPE cells (FIG. 2)” value is on record as “reduced mitochondrial reactive oxygen species” and the “efficacy on mitochondrial reactive oxygen species compared with positive control anti-VEGF agent (FIG. 2)” value is “efficacy equivalent to that of the positive control anti-VEGF agent”. For the same compound, in assay [3], the “mitochondrial reactive oxygen species in RPE cells (FIG. 11)” value was “reduced mitochondrial reactive oxygen species”. In assay [4], the “efficacy on lesion compared with positive control anti-VEGF agent (FIG. 1)” value is given as “efficacy equivalent to that of the positive control anti-VEGF agent” and the “lesion formation / lesion volume (FIG. 1)” value is “inhibited lesion formation”. In assay [5], the “lesion in the eyeball by fundus photography (FIG. 9)” value was “reduced the lesion in the eyeball”. Moreover, the “RPE cytoskeleton, ZO-1 staining (FIG. 10)” value in assay [6] is “restored the damaged RPE cytoskeleton”.
